Measurements reported in patent US7906518B2, “Therapeutic compounds” (CBT Development Limited, priority 2006, dated 2011).

Key:
[1] = monkey, multiple oral dosing, 14C-labelled; cited from earlier work
[2] = test system: streptozocin induced static allodynia; experiment: streptozocin-induced diabetic neuropathy, static allodynia (von Frey hairs); format: in vivo; details: rats
Description: Diabetes was induced by a single i.p. injection of 50 mg/kg streptozocin (Sigma, 50 mg/ml/kg in citrate buffered saline 33 mM pH 4.5). Control animals received single i.p. injection of citrate buffered saline.

adenosine A2A receptor = adenosine A2A receptor (Homo sapiens, UniProt P29274); experiment: EC50 at the adenosine A2A receptor; format: biochemical
Sequence of adenosine A2A receptor (P29274 whole entry): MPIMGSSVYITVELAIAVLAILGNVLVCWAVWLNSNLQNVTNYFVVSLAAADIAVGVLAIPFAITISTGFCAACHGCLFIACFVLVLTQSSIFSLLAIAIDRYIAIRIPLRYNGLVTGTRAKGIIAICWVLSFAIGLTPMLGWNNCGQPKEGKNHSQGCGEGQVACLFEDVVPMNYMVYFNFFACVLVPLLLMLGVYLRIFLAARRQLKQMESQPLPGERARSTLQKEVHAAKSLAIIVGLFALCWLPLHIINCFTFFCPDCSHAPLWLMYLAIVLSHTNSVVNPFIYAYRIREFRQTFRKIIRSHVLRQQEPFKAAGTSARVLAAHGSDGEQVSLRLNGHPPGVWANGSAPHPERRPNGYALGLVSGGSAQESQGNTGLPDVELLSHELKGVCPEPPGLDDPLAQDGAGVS

EC50 (adenosine A2A receptor)	SMILES	drug level in red blood cells compared to Ribavarin [1]	drug level in the liver compared to Ribavarin [1]	reversal of streptozocin induced static allodynia (PWT), all doses ([2]; 0.6-[…] po)	reversal of streptozocin induced static allodynia (PWT), top dose ([2]; top dose […] po)
	N=C(N)c1ncn([C@@H]2O[C@H](CO)[C@@H](O)[C@H]2O)n1 [Viramidine]	only half in red blood cells	three times the drug level in the liver		
~1000 nM	COc1nc(N)c2ncn([C@@H]3O[C@H](CO)[C@@H](O)[C@H]3O)c2n1 [Spongosine, 2-methoxyadenosine]			All doses were effective at reversing allodynia	fully reversed the allodynia
